# Laboratory results taken from PubChem BioAssay AID1745844 (Carcinogenic Potency Database (CPDB), 2022).
# Test system: rodent lifetime carcinogenesis bioassay, tumor incidence TD50
# Experiment: carcinogenic potency in animals, long-term in vivo studies, CPDB compilation (AID 1745844)
# Details: in feed
structure (smiles),measurement,setting,value
Nc1c(Br)cc(Br)c2c1C(=O)c1ccccc1C2=O,TD50,"mouse, strain B6C3F1, females, site: any site (literature study), lesion: several types, types named in the paper, dosed 104 weeks, study length 104 weeks",1030 mg/kg/day
same,TD50,"mouse, strain B6C3F1, females, site: forestomach + liver + lung, lesion: squamous-cell carcinoma + squamous-cell papilloma + hepatocellular adenoma + hepatocellular carcinoma + alveolar/bronchiolar ade, dosed 104 weeks, study length 104 weeks",546 mg/kg/day
same,TD50,"mouse, strain B6C3F1, females, site: forestomach, lesion: squamous-cell carcinoma + squamous-cell papilloma, dosed 104 weeks, study length 104 weeks",1230 mg/kg/day
same,TD50,"mouse, strain B6C3F1, females, site: forestomach, lesion: squamous-cell carcinoma, dosed 104 weeks, study length 104 weeks",3930 mg/kg/day
same,TD50,"mouse, strain B6C3F1, females, site: forestomach, lesion: squamous-cell papilloma, dosed 104 weeks, study length 104 weeks",1760 mg/kg/day
same,TD50,"mouse, strain B6C3F1, females, site: liver, lesion: hepatocellular adenoma + hepatoblastoma + hepatocellular carcinoma, dosed 104 weeks, study length 104 weeks",490 mg/kg/day
same,TD50,"mouse, strain B6C3F1, females, site: liver, lesion: hepatocellular adenoma + hepatocellular carcinoma, dosed 104 weeks, study length 104 weeks",490 mg/kg/day
same,TD50,"mouse, strain B6C3F1, females, site: liver, lesion: hepatocellular adenoma, dosed 104 weeks, study length 104 weeks",515 mg/kg/day
same,TD50,"mouse, strain B6C3F1, females, site: liver, lesion: hepatocellular carcinoma, dosed 104 weeks, study length 104 weeks",1530 mg/kg/day
same,TD50,"mouse, strain B6C3F1, females, site: lung, lesion: alveolar/bronchiolar adenoma + alveolar/bronchiolar carcinoma, dosed 104 weeks, study length 104 weeks",1990 mg/kg/day
same,TD50,"mouse, strain B6C3F1, females, site: lung, lesion: alveolar/bronchiolar adenoma, dosed 104 weeks, study length 104 weeks",1990 mg/kg/day
same,TD50,"mouse, strain B6C3F1, females, site: pituitary gland, lesion: pars distalis adenoma, dosed 104 weeks, study length 104 weeks",3750 mg/kg/day
same,TD50,"mouse, strain B6C3F1, females, site: uterus, lesion: endometrial stromal polyp + endometrial stromal sarcoma, dosed 104 weeks, study length 104 weeks",6820 mg/kg/day
same,TD50,"mouse, strain B6C3F1, males, site: any site (literature study), lesion: several types, types named in the paper, dosed 103 weeks, study length 104 weeks",566 mg/kg/day
same,TD50,"mouse, strain B6C3F1, males, site: forestomach + liver + lung, lesion: squamous-cell carcinoma + squamous-cell papilloma + hepatocellular adenoma + hepatoblastoma + hepatocellular carcinoma + alveolar/, dosed 103 weeks, study length 104 weeks",465 mg/kg/day
same,TD50,"mouse, strain B6C3F1, males, site: forestomach, lesion: squamous-cell carcinoma + squamous-cell papilloma, dosed 103 weeks, study length 104 weeks",1130 mg/kg/day
same,TD50,"mouse, strain B6C3F1, males, site: forestomach, lesion: squamous-cell carcinoma, dosed 103 weeks, study length 104 weeks",2730 mg/kg/day
same,TD50,"mouse, strain B6C3F1, males, site: forestomach, lesion: squamous-cell papilloma, dosed 103 weeks, study length 104 weeks",1680 mg/kg/day
same,TD50,"mouse, strain B6C3F1, males, site: liver, lesion: hepatoblastoma + hepatocellular carcinoma, dosed 103 weeks, study length 104 weeks",1870 mg/kg/day
same,TD50,"mouse, strain B6C3F1, males, site: liver, lesion: hepatoblastoma, dosed 103 weeks, study length 104 weeks",9250 mg/kg/day
same,TD50,"mouse, strain B6C3F1, males, site: liver, lesion: hepatocellular adenoma + hepatoblastoma + hepatocellular carcinoma, dosed 103 weeks, study length 104 weeks",467 mg/kg/day
same,TD50,"mouse, strain B6C3F1, males, site: liver, lesion: hepatocellular adenoma + hepatocellular carcinoma, dosed 103 weeks, study length 104 weeks",467 mg/kg/day
same,TD50,"mouse, strain B6C3F1, males, site: liver, lesion: hepatocellular adenoma, dosed 103 weeks, study length 104 weeks",464 mg/kg/day
same,TD50,"mouse, strain B6C3F1, males, site: liver, lesion: hepatocellular carcinoma, dosed 103 weeks, study length 104 weeks",2240 mg/kg/day
same,TD50,"mouse, strain B6C3F1, males, site: lung, lesion: alveolar/bronchiolar adenoma + alveolar/bronchiolar carcinoma, dosed 103 weeks, study length 104 weeks",817 mg/kg/day
same,TD50,"mouse, strain B6C3F1, males, site: lung, lesion: alveolar/bronchiolar adenoma, dosed 103 weeks, study length 104 weeks",831 mg/kg/day
same,TD50,"rat, strain Fischer 344, females, site: any site (literature study), lesion: several types, types named in the paper, dosed 40 weeks, study length 66 weeks",135 mg/kg/day
same,TD50,"rat, strain Fischer 344, females, site: any site (literature study), lesion: several types, types named in the paper, dosed 66 weeks, study length 66 weeks",147 mg/kg/day
same,TD50,"rat, strain Fischer 344, females, site: any site (literature study), lesion: several types, types named in the paper, dosed 103 weeks, study length 104 weeks",160 mg/kg/day
same,TD50,"rat, strain Fischer 344, females, site: cecum + colon + kidney + liver + rectum + urinary bladder, lesion: polypoid adenoma + adenocarcinoma + tubule adenoma + tubule carcinoma + hepatocholangiocarcinoma + hepatocellular adenoma + hepatoce, dosed 103 weeks, study length 104 weeks",31 mg/kg/day
same,TD50,"rat, strain Fischer 344, females, site: cecum + colon + rectum, lesion: polypoid adenoma, dosed 40 weeks, study length 66 weeks",217 mg/kg/day
same,TD50,"rat, strain Fischer 344, females, site: cecum + colon + rectum, lesion: polypoid adenoma, dosed 66 weeks, study length 66 weeks",1270 mg/kg/day
same,TD50,"rat, strain Fischer 344, females, site: cecum + colon + rectum, lesion: polypoid adenoma, dosed 103 weeks, study length 104 weeks",72.9 mg/kg/day
same,TD50,"rat, strain Fischer 344, females, site: colon + rectum, lesion: adenocarcinoma, dosed 103 weeks, study length 104 weeks",414 mg/kg/day
same,TD50,"rat, strain Fischer 344, females, site: kidney, lesion: tubule adenoma + tubule carcinoma, dosed 40 weeks, study length 66 weeks",418 mg/kg/day
same,TD50,"rat, strain Fischer 344, females, site: kidney, lesion: tubule adenoma + tubule carcinoma, dosed 66 weeks, study length 66 weeks",1520 mg/kg/day
same,TD50,"rat, strain Fischer 344, females, site: kidney, lesion: tubule adenoma + tubule carcinoma, dosed 103 weeks, study length 104 weeks",388 mg/kg/day
same,TD50,"rat, strain Fischer 344, females, site: kidney, lesion: tubule adenoma, dosed 40 weeks, study length 66 weeks",418 mg/kg/day
same,TD50,"rat, strain Fischer 344, females, site: kidney, lesion: tubule adenoma, dosed 66 weeks, study length 66 weeks",1520 mg/kg/day
same,TD50,"rat, strain Fischer 344, females, site: kidney, lesion: tubule adenoma, dosed 103 weeks, study length 104 weeks",388 mg/kg/day
same,TD50,"rat, strain Fischer 344, females, site: liver, lesion: hepatocellular adenoma + hepatoblastoma + hepatocellular carcinoma, dosed 40 weeks, study length 66 weeks",121 mg/kg/day
same,TD50,"rat, strain Fischer 344, females, site: liver, lesion: hepatocellular adenoma + hepatoblastoma + hepatocellular carcinoma, dosed 66 weeks, study length 66 weeks",121 mg/kg/day
same,TD50,"rat, strain Fischer 344, females, site: liver, lesion: hepatocellular adenoma + hepatoblastoma + hepatocellular carcinoma, dosed 103 weeks, study length 104 weeks",40.1 mg/kg/day
same,TD50,"rat, strain Fischer 344, females, site: liver, lesion: hepatocellular adenoma + hepatocellular carcinoma, dosed 40 weeks, study length 66 weeks",121 mg/kg/day
same,TD50,"rat, strain Fischer 344, females, site: liver, lesion: hepatocellular adenoma + hepatocellular carcinoma, dosed 66 weeks, study length 66 weeks",121 mg/kg/day
same,TD50,"rat, strain Fischer 344, females, site: liver, lesion: hepatocellular adenoma + hepatocellular carcinoma, dosed 103 weeks, study length 104 weeks",40.1 mg/kg/day
same,TD50,"rat, strain Fischer 344, females, site: liver, lesion: hepatocellular adenoma, dosed 40 weeks, study length 66 weeks",191 mg/kg/day
same,TD50,"rat, strain Fischer 344, females, site: liver, lesion: hepatocellular adenoma, dosed 66 weeks, study length 66 weeks",219 mg/kg/day
same,TD50,"rat, strain Fischer 344, females, site: liver, lesion: hepatocellular adenoma, dosed 103 weeks, study length 104 weeks",53.9 mg/kg/day
same,TD50,"rat, strain Fischer 344, females, site: liver, lesion: hepatocellular carcinoma, dosed 40 weeks, study length 66 weeks",167 mg/kg/day
same,TD50,"rat, strain Fischer 344, females, site: liver, lesion: hepatocellular carcinoma, dosed 66 weeks, study length 66 weeks",124 mg/kg/day
same,TD50,"rat, strain Fischer 344, females, site: liver, lesion: hepatocellular carcinoma, dosed 103 weeks, study length 104 weeks",88.4 mg/kg/day
